Results on three molecules are retold here after PMC12750218 (ACS Omega, 2025).

Data set [1] concerns human α1-acid glycoprotein (AGP). As to the kind of experiment: Isothermal titration calorimetry of AGP with APR enantiomers. It is filed as binding. Conditions: ITC, aqueous 5% DMSO, 25 °C; for Standard entropy (ΔS) of binding: calculated from ΔG=ΔH−TΔS; for Standard Gibbs free energy (ΔG) of binding: calculated from −RTlnK.
Protocol: The working cell contained 1427.5 μL of AGP solution, which was titrated with 5 μL aliquots of the APR solution from the syringe, up to a total volume of 275 μL. The reference cell was filled with aqueous 5% DMSO. Each injection lasted 10 s, with a 1000 s interval between injections. The stirring speed was maintained at 307 rpm.
The resulting isotherm was next fitted with the nonlinear multiparameter regression method (Origin 7.0 MicroCal) using the One Set of Sites model, which assumes that a receptor (macromolecule) has a single class of multiple independent binding sites for a ligand. In this model, each site has the same affinity and thermodynamics for the ligand, and the binding of one ligand molecule to a site is independent of the binding events at other sites. […] The standard Gibbs free energy of binding ΔG and standard entropy of binding ΔS can be next calculated using the basic thermodynamic relationship ΔG=ΔH−TΔS=−RTln⁡K where T is temperature and R is the gas constant.
Data set [2] shares this test system. Put plainly: Ultracentrifugation, free APR in supernatant by HPLC-UV. Conditions: isolated human α1-acid glycoprotein (AGP) in PBS, 5 μM APR, 5-15 μM AGP, PBS pH 7.4, 20 °C, 1:1 stoichiometry, K in L mol^–1, read-out: binding (stability) constant log K (converted). On the procedure: The interaction of S-APR and R-APR with AGP was also examined with ultracentrifugation, where increasing protein levels (final concentrations: 0, 5, 10, and 15 μM) were added to a standard amount of the ligand (5 μM) in PBS (pH 7.4). These samples (600 μL) were centrifuged for 16 h at 170,000g and 20 °C employing an Optima MAX-XP ultracentrifuge (Beckman Coulter, Brea, CA, USA). Using these experimental conditions, the protein is slowly sedimented without the disruption of ligand–protein interactions. − , Thereafter, the unbound free fraction of APR was directly quantified in the protein-free supernatants by the HPLC-UV method (see the next paragraph). Binding (association) constants (K; unit: L mol^–1) of APR–AGP complexes were calculated assuming a 1:1 stoichiometry of complex formation: , K=([APR−AGP])/([APR]×[AGP]) 3 where [APR] is the molar concentration of the unbound free ligand, [AGP] is the molar concentration of the unbound free protein, and [APR–AGP] indicates the molar concentration of the ligand–protein complex.
The APR concentration after centrifugation was measured by a validated HPLC-UV method using an XTERRA RP18 column (5 μm, 4.6 × 100 mm), maintained at 40 °C. Isocratic elution was applied using acetonitrile and water containing 0.5% formic acid (60:40, v/v) as the mobile phase. […] The concentration was determined by using the external standard method. […]

Data set [3] relates to human serum albumin (HSA). Details: method as in number not printed (authors' recent work, Dombi et al., 2023). Conditions: binding to HSA; ref number not printed (authors' recent work, Dombi et al., 2023); cited from earlier work.
The test system of data set [4] is human α1-acid glycoprotein (AGP). Put plainly: HPLC on chiral AGP column (immobilized protein): retention factors and estimated bound percentage. It is filed as binding. Conditions: for Bound percentage (b%): from ln k extrapolated to zero organic modifier, b%=100×k/(1+k); for retention factor (k): chiral AGP column, 2-propanol modifier. On the procedure: In this study, AGP was used as the chiral selector. […]
HPLC columns with immobilized proteins can also be used to estimate the percentage of the drug bound to the protein. […] Extrapolating this relationship to a zero organic modifier approximates physiological conditions. The intercept of the regression lines was used to calculate protein binding percentages based on eq .
LC-UV analysis was conducted on an Agilent 1100 HPLC system that included a quaternary pump, an autosampler, a column compartment, and a DAD detector (Agilent Technologies, Waldbronn, Germany). Data analysis was performed with ChemStation software (version: B04.03-SP2). UV detection was set at 230 nm. Stock solutions were prepared in methanol at a concentration of 1 mg/mL (2.17 mM), and further dilutions were made by using deionized water. Samples were prepared to contain 0.1 mg/mL (0.217 mM) R-APR and 0.2 mg/mL (0.434 mM) S-APR, with each analysis performed using a 5 μL injection volume. […] Chromatographic data were evaluated according to standard calculation methods. The retention factor (k) for each enantiomer was determined using the following equation: k=(tr−t0)/t0 1 where tr denotes the retention time of the target enantiomer and t0 represents the column dead time.
Additionally, the retention factor was used to estimate the percentage of protein-bound analytes according to the following formula: b%=100×k/(1+k) 2 Three parallel measurements were performed for each case.

The test system of a further data set is mouse plasma proteins. Details: method as in public assessment report of Otezla (CHMP, 2014). Conditions: 0.25 to 2.5 μg/mL, ref public assessment report of Otezla (CHMP, 2014); cited from earlier work.
A further data set relates to human plasma proteins. Details: method as in public assessment report of Otezla (CHMP, 2014). Conditions: 0.25 to 2.5 μg/mL, ref public assessment report of Otezla (CHMP, 2014); cited from earlier work.
A further data set deals with rabbit plasma proteins. Also noted: method as in public assessment report of Otezla (CHMP, 2014). Conditions: 0.25 to 2.5 μg/mL, ref public assessment report of Otezla (CHMP, 2014); cited from earlier work.
A further data set relates to rat plasma proteins. Details: method as in public assessment report of Otezla (CHMP, 2014). Conditions: 0.25 to 2.5 μg/mL, ref public assessment report of Otezla (CHMP, 2014); cited from earlier work.
A further data set has as its system monkey plasma proteins. Also noted: method as in public assessment report of Otezla (CHMP, 2014). Conditions: 0.25 to 2.5 μg/mL, ref public assessment report of Otezla (CHMP, 2014); cited from earlier work.
Where [5] appears, read: 25 °C, sodium phosphate buffer 10 mM pH 7.0, 95% in eluent.
Where [6] appears, read: ammonium acetate buffer 10 mM pH 7.0, 85% in eluent.
The mark [7] stands for this setting: ammonium acetate buffer 10 mM pH 7.0, 90% in eluent.
[8] abbreviates: ammonium acetate buffer 10 mM pH 7.0, 92.5% in eluent.
[9] abbreviates: ammonium acetate buffer 10 mM pH 7.0, 95% in eluent.
Where [10] appears, read: ammonium bicarbonate buffer 10 mM pH 7.0, 85% in eluent.
The mark [11] stands for this setting: ammonium bicarbonate buffer 10 mM pH 7.0, 90% in eluent.
Where [12] appears, read: ammonium bicarbonate buffer 10 mM pH 7.0, 92.5% in eluent.
The mark [13] stands for this setting: ammonium bicarbonate buffer 10 mM pH 7.0, 95% in eluent.
[14] abbreviates: sodium phosphate buffer 10 mM pH 7.0, 85% in eluent.
Setting [15] is: sodium phosphate buffer 10 mM pH 7.0, 90% in eluent.
Where [16] appears, read: sodium phosphate buffer 10 mM pH 7.0, 92.5% in eluent.

As for `CCOc1cc([C@H](CS(C)(=O)=O)N2C(=O)c3cccc(NC(C)=O)c3C2=O)ccc1OC` [R-APR, apremilast], the “Standard enthalpy (ΔH) of binding” value in [1] is “–3.40 ± 0.26 kcal mol^–1”. Moreover, the “Standard entropy (ΔS) of binding” value in data set [1] is 13.7 ± 1.5 cal K^–1 mol^–1. Besides, the “Standard Gibbs free energy (ΔG) of binding” value in data set [1] was “–7.48 ± 0.18 kcal mol^–1”. Moreover, the Kd at 16 h, 5 µM in data set [2] was 2290 nM. In addition, the “Stability constant (log K), HSA” value in data set [3] is 3.81 ± 0.05. Further, the results for the “Bound percentage (b%)” value in data set [4] (ammonium acetate buffer), in [4] (ammonium bicarbonate buffer) and in data set [4] (sodium phosphate buffer) were 98.37%, 99.19% and 99.31%, respectively. Further, the “retention factor (k)” value is on record as 3.99 ± 0.02 in data set [4] (setting [5]); 0.33 ± 0.01 in data set [4] (setting [6]); 0.90 ± 0.01 in [4] (setting [7]); 1.51 ± 0.03 in data set [4] (setting [8]); 3.29 ± 0.02 in [4] (setting [9]); 0.32 ± 0.01 in data set [4] (setting [10]). In addition, the “retention factor (k)” value is recorded as 0.94 ± 0.01 in data set [4] (setting [11]); 1.62 ± 0.01 in data set [4] (setting [12]); 3.59 ± 0.02 in [4] (setting [13]); 0.34 ± 0.01 in data set [4] (setting [14]); 0.98 ± 0.01 in data set [4] (setting [15]); 1.69 ± 0.01 in data set [4] (setting [16]).

As to `CCOc1cc([C@@H](CS(C)(=O)=O)N2C(=O)c3cccc(NC(C)=O)c3C2=O)ccc1OC` [APR, Apremilast], the “average percentage bound to plasma proteins” value in the data set on mouse plasma proteins is given as 88.6%; in the data set on human plasma proteins, 68.3%; in the data set on rabbit plasma proteins it was 80.9%; with rat plasma proteins, 90.6%; in the data set on monkey plasma proteins, 84.3%.

`CCOc1cc([C@@H](CS(C)(=O)=O)N2C(=O)c3cccc(NC(C)=O)c3C2=O)ccc1OC` [S-APR, apremilast]: the “Standard enthalpy (ΔH) of binding” value in data set [1] was “–4.80 ± 0.27 kcal mol^–1”. Further, in data set [1], the “Standard entropy (ΔS) of binding” value was 9.3 ± 1.3 cal K^–1 mol^–1. Besides, the “Standard Gibbs free energy (ΔG) of binding” value in [1] is “–7.57 ± 0.12 kcal mol^–1”. Moreover, the Kd at 16 h, 5 µM in [2] is 1700 nM. Moreover, in data set [3], the “Stability constant (log K), HSA” value is on record as 4.02 ± 0.08. Further, the results for the “Bound percentage (b%)” value in [4] (ammonium acetate buffer), in data set [4] (ammonium bicarbonate buffer) and in [4] (sodium phosphate buffer) were 99.01%, 99.54% and 99.63%, respectively. Moreover, the “retention factor (k)” value in [4] (setting [5]) is reported as 5.05 ± 0.03; in [4] (setting [6]) it was 0.33 ± 0.01; in data set [4] (setting [7]) it was 0.90 ± 0.01; in [4] (setting [8]) it was 1.72 ± 0.03; in data set [4] (setting [9]) it was 4.07 ± 0.02; in data set [4] (setting [10]), 0.32 ± 0.01. Further, the “retention factor (k)” value in data set [4] (setting [11]) was 0.94 ± 0.01; in data set [4] (setting [12]), 1.89 ± 0.01; in data set [4] (setting [13]), 4.44 ± 0.02; in [4] (setting [14]) it was 0.34 ± 0.01; in data set [4] (setting [15]) it was 0.98 ± 0.01; in data set [4] (setting [16]), 2.00 ± 0.01.
